The values that follow come from patent US12552825B2 (Zikani Therapeutics, Inc., priority 2019, dated 2026).

In brackets after ≈: the same amount, converted by molar mass. Where only a bound is given, the exact number is not on record here.

For data set [1] the following is noted: from CO[C@](C)(C[C@@H](C)CN(C)[C@H](CO)CNC(=O)OCc1ccccc1)[C@H](O[C@@H]1O[C@H](C)C[C@H](N(C)C)[C@H]1OC(=O)c1ccccc1)[C@@H](C)C1=C(C)C(=O)OC(C)(C)O1; ester bond; chlorobenzene; 4.0 mM; 165.0 °C; 20.0 h.
The next data set deals with S. aureus MP-12. Description: microbe, parasite or virus in culture. As to conditions: Staphylococcus aureus, MP12, read-out: MIC S. aureus MP-12. In kind it is cell-based.
A further data set has as its system K. pneumoniae MP-546. As to the kind of experiment: MIC determination by CLSI broth dilution, K. pneumoniae MP-546. As to conditions: Klebsiella pneumoniae, MP546, CLSI broth dilution; strain MP-546. In kind it is cell-based. On the technique in general: Dilution methods test growth across graded concentrations, often in twofold steps.
The subject of the next data set is P. aeruginosa MP-3. As to the kind of experiment: MIC determination by CLSI broth dilution, P. aeruginosa MP-3. In kind it is cell-based. As to conditions: Pseudomonas aeruginosa, MP3, strain MP-3.
The subject of another data set is E. coli MP-4. Description: MIC determination by CLSI broth dilution, E. coli MP-4. Conditions: Escherichia coli, MP4, CLSI broth dilution; strain MP-4. Format: cell-based.
A further data set deals with K. pneumoniae MP-648. Description: MIC determination by CLSI broth dilution, K. pneumoniae MP-648. Format: cell-based. As to conditions: Klebsiella pneumoniae, MP648, CLSI broth dilution; strain MP-648.
A further data set deals with A. baumannii MP-15. Description: MIC determination by CLSI broth dilution, A. baumannii MP-15. In kind it is cell-based. Conditions: Acinetobacter baumannii, MP15, strain MP-15, read-out: MIC A. baumanii MP-15.

With `CO[C@]1(C)C[C@@H](C)CN(C)[C@@H](CNC(=O)OCc2ccccc2)COC(=O)C(C)C(=O)[C@H](C)[C@H]1O[C@@H]1O[C@H](C)C[C@H](N(C)C)[C@H]1OC(=O)c1ccccc1` (stereo partly shown), the ring closure, yield of all isomers in data set [1] came out at 82%.
In the case of `CCN1C[C@H](C)C[C@@](C)(OC)[C@H](O[C@@H]2O[C@H](C)C[C@H](N(C)C)[C@H]2O)[C@@H](C)C(=O)C(C)(C)C(=O)OC[C@H]1CCCN1CCCC1` [Compound 113, (3R,6R,8R,9R,10R)-9-(((2S,3R,4S,6R)-4-(dimethylamino)-3-hydroxy-6-methyltetrahydro-2H-pyran-2-yl)oxy)-4-ethyl-8-methoxy-6,8,10,12,12-pentamethyl-3-(3-(pyrrolidin-1-yl)propyl)-1-oxa-4-azacyclotridecane-11,13-dione], the MIC is below 4 µg/mL in the data set on S. aureus MP-12; below 4 µg/mL with K. pneumoniae MP-546; above 32 µg/mL in the data set on P. aeruginosa MP-3; below 4 µg/mL against E. coli MP-4; below 4 µg/mL against K. pneumoniae MP-648; above 32 µg/mL with A. baumannii MP-15.
As for `CO[C@]1(C)C[C@@H](C)CN(C)[C@@H](CCCN2CCc3ccccc3C2)COC(=O)C(C)(C)C(=O)[C@H](C)[C@H]1O[C@@H]1O[C@H](C)C[C@H](N(C)C)[C@H]1O` [Compound 120, (3S,6R,8R,9R,10R)-3-(3-(3,4-dihydroisoquinolin-2 (1H)-yl)propyl)-9-(((2S,3R,4S,6R)-4-(dimethylamino)-3-hydroxy-6-methyltetrahydro-2H-pyran-2-yl)oxy)-8-methoxy-4,6,8,10,12,12-hexamethyl-1-oxa-4-azacyclotridecane-11,13-dione], the MIC is below 4 µg/mL in the data set with S. aureus MP-12; below 4 µg/mL with K. pneumoniae MP-546; above 32 µg/mL against P. aeruginosa MP-3; below 4 µg/mL in the data set on E. coli MP-4; below 4 µg/mL with K. pneumoniae MP-648; 4 to 32 µg/mL (≈ 5.94 to 47.5 µM) in the data set with A. baumannii MP-15.
With `CCN1C[C@H](C)C[C@@](C)(OC)[C@H](O[C@@H]2O[C@H](C)C[C@H](N(C)C)[C@H]2O)[C@@H](C)C(=O)C(C)(C)C(=O)OC[C@H]1CCCN1CCCCC1` [Compound 140, (3R,6R,8R,9R,10R)-9-(((2S,3R,4S,6R)-4-(dimethylamino)-3-hydroxy-6-methyltetrahydro-2H-pyran-2-yl)oxy)-4-ethyl-8-methoxy-6,8,10,12,12-pentamethyl-3-(3-(piperidin-1-yl)propyl)-1-oxa-4-azacyclotridecane-11,13-dione], the MIC with S. aureus MP-12 was 4 to 32 µg/mL (≈ 6.25 to 50 µM); with K. pneumoniae MP-546, below 4 µg/mL; with P. aeruginosa MP-3, above 32 µg/mL; in the data set on E. coli MP-4 it was below 4 µg/mL; with K. pneumoniae MP-648 it was below 4 µg/mL; with A. baumannii MP-15 it was above 32 µg/mL.
Regarding `CO[C@]1(C)C[C@@H](C)CN(C)[C@H](CC2CCN(CC3CC3)CC2)COC(=O)C(C)(C)C(=O)[C@H](C)[C@H]1O[C@@H]1O[C@H](C)C[C@H](N(C)C)[C@H]1O` [Compound 57], the MIC with S. aureus MP-12 is 4 to 32 µg/mL (≈ 6.14 to 49.1 µM); with K. pneumoniae MP-546, below 4 µg/mL; against P. aeruginosa MP-3, above 32 µg/mL; against E. coli MP-4, below 4 µg/mL; in the data set with K. pneumoniae MP-648, below 4 µg/mL; in the data set with A. baumannii MP-15, above 32 µg/mL.
As to `CO[C@]1(C)C[C@@H](C)CN(C)[C@H](CC2CCN(C3CC3)CC2)COC(=O)C(C)(C)C(=O)[C@H](C)[C@H]1O[C@@H]1O[C@H](C)C[C@H](N(C)C)[C@H]1O` [Compound 63], the MIC with S. aureus MP-12 is 4 to 32 µg/mL (≈ 6.27 to 50.2 µM); in the data set on K. pneumoniae MP-546 it was below 4 µg/mL; against P. aeruginosa MP-3, above 32 µg/mL; against E. coli MP-4 it was below 4 µg/mL; against K. pneumoniae MP-648, 4 to 32 µg/mL (≈ 6.27 to 50.2 µM); in the data set on A. baumannii MP-15, above 32 µg/mL.
Regarding `CO[C@]1(C)C[C@@H](C)CN(C)[C@H](CC2CCN(CC3CCCCC3)CC2)COC(=O)C(C)(C)C(=O)[C@H](C)[C@H]1O[C@@H]1O[C@H](C)C[C@H](N(C)C)[C@H]1O` [Compound 55], the MIC was 4 to 32 µg/mL (≈ 5.76 to 46.1 µM) in the data set on S. aureus MP-12; below 4 µg/mL in the data set on K. pneumoniae MP-546; above 32 µg/mL in the data set with P. aeruginosa MP-3; below 4 µg/mL with E. coli MP-4; below 4 µg/mL in the data set with K. pneumoniae MP-648; above 32 µg/mL with A. baumannii MP-15.
Consider `CO[C@]1(C)C[C@@H](C)CN(C)[C@H](C[C@H]2C[C@H](N(C)CC3CC3)C2)COC(=O)C(C)(C)C(=O)[C@H](C)[C@H]1O[C@@H]1O[C@H](C)C[C@H](N(C)C)[C@H]1O` [Compound 138, (3R,6R,8R,9R,10R)-3-(((1r,3S)-3-((cyclopropylmethyl)(methyl)amino)cyclobutyl)methyl)-9-(((2S,3R,4S,6R)-4-(dimethylamino)-3-hydroxy-6-methyltetrahydro-2H-pyran-2-yl)oxy)-8-methoxy-4,6,8,10,12,12-hexamethyl-1-oxa-4-azacyclotridecane-11,13-dione], for which the MIC in the data set with S. aureus MP-12 was below 4 µg/mL; with K. pneumoniae MP-546, below 4 µg/mL; against P. aeruginosa MP-3 it was above 32 µg/mL; against E. coli MP-4 it was below 4 µg/mL; in the data set with K. pneumoniae MP-648 it was below 4 µg/mL; in the data set with A. baumannii MP-15 it was above 32 µg/mL.
In the case of `CCCN1C[C@H](C)C[C@@](C)(OC)[C@H](O[C@@H]2O[C@H](C)C[C@H](N(C)C)[C@H]2O)[C@@H](C)C(=O)C(C)(C)C(=O)OC[C@H]1CCCN1CCc2ncncc2C1` [Compound 182, (3R,6R,8R,9R,10R)-3-(3-(7,8-dihydropyrido[4,3-d]pyrimidin-6 (5H)-yl)propyl)-9-(((2S,3R,4S,6R)-4-(dimethylamino)-3-hydroxy-6-methyltetrahydro-2H-pyran-2-yl)oxy)-8-methoxy-6,8,10,12,12-pentamethyl-4-propyl-1-oxa-4-azacyclotridecane-11,13-dione], the MIC in the data set with S. aureus MP-12 is 4 to 32 µg/mL (≈ 5.68 to 45.5 µM); in the data set on K. pneumoniae MP-546, 4 to 32 µg/mL (≈ 5.68 to 45.5 µM); against P. aeruginosa MP-3 it was above 32 µg/mL; against E. coli MP-4, below 4 µg/mL; against K. pneumoniae MP-648, 4 to 32 µg/mL (≈ 5.68 to 45.5 µM); in the data set on A. baumannii MP-15, above 32 µg/mL.
As for `CO[C@]1(C)C[C@@H](C)CN(C)[C@@H](CCCN2CCC[C@@H]2C)COC(=O)C(C)(C)C(=O)[C@H](C)[C@H]1O[C@@H]1O[C@H](C)C[C@H](N(C)C)[C@H]1O` [Compound 117, (3S,6R,8R,9R,10R)-9-(((2S,3R,4S,6R)-4-(dimethylamino)-3-hydroxy-6-methyltetrahydro-2H-pyran-2-yl)oxy)-8-methoxy-4,6,8,10,12,12-hexamethyl-3-(3-((S)-2-methylpyrrolidin-1-yl)propyl)-1-oxa-4-azacyclotridecane-11,13-dione], the MIC in the data set with S. aureus MP-12 was below 4 µg/mL; in the data set with K. pneumoniae MP-546 it was below 4 µg/mL; in the data set with P. aeruginosa MP-3, above 32 µg/mL; with E. coli MP-4 it was below 4 µg/mL; with K. pneumoniae MP-648, below 4 µg/mL; in the data set with A. baumannii MP-15, above 32 µg/mL.
Take `CCN1C[C@H](C)C[C@@](C)(OC)[C@H](O[C@@H]2O[C@H](C)C[C@H](N(C)C)[C@H]2O)[C@@H](C)C(=O)C(C)(C)C(=O)OC[C@H]1[C@H](O)CCN1CCCC1` [Compound 146]: the MIC is 4 to 32 µg/mL (≈ 6.23 to 49.9 µM) in the data set with S. aureus MP-12; below 4 µg/mL against K. pneumoniae MP-546; above 32 µg/mL against P. aeruginosa MP-3; below 4 µg/mL with E. coli MP-4; below 4 µg/mL against K. pneumoniae MP-648; above 32 µg/mL in the data set with A. baumannii MP-15.
As to `COCO[C@@H](C1CCN(CC2CC2)CC1)[C@@H]1COC(=O)C(C)(C)C(=O)[C@H](C)[C@@H](O[C@@H]2O[C@H](C)C[C@H](N(C)C)[C@H]2O)[C@](C)(OC)C[C@@H](C)CN1C` [Compound 29], the MIC in the data set with S. aureus MP-12 was 4 to 32 µg/mL (≈ 5.62 to 44.9 µM); in the data set on K. pneumoniae MP-546, above 32 µg/mL; against P. aeruginosa MP-3, above 32 µg/mL; against E. coli MP-4, 4 to 32 µg/mL (≈ 5.62 to 44.9 µM); against K. pneumoniae MP-648, above 32 µg/mL; with A. baumannii MP-15, above 32 µg/mL.
As to `CCCN1CCC([C@@H](O)[C@H]2COC(=O)C(C)(C)C(=O)[C@H](C)[C@@H](O[C@@H]3O[C@H](C)C[C@H](N(C)C)[C@H]3O)[C@](C)(OC)C[C@@H](C)CN2C)CC1` [Compound 24], the MIC in the data set with S. aureus MP-12 was 4 to 32 µg/mL (≈ 6.1 to 48.8 µM); against K. pneumoniae MP-546, 4 to 32 µg/mL (≈ 6.1 to 48.8 µM); with P. aeruginosa MP-3 it was above 32 µg/mL; against E. coli MP-4 it was 4 to 32 µg/mL (≈ 6.1 to 48.8 µM); against K. pneumoniae MP-648, above 32 µg/mL; with A. baumannii MP-15 it was above 32 µg/mL.
